Laboratory results published in US4847302A, “Use of certain compounds in livestock food as growth promotants for better feed utilization and improved carcass composition” (Merck & Co., Inc., priority 1988, dated 1989).

Assay: In vivo testing in rats: growth, feed conversion and carcass composition
Design: species or system rat (male Charles River CD)
Conditions: Test 1, in diet, dose equivalent to 20 ppm clenbuterol (clenbuterol: 10)
From the text: Eighty intact, male Charles River CD rats, 75-90 g, were housed and maintained on rat chow and water ad libitum. After four days acclimation ten rats per group were randomized by weight to treatment and pen. Compounds to be tested were premixed and added to ground rat chow using doses equivalent to 20 ppm of clenbuterol on a molecular weight basis. It had previously been determined 10 ppm of clenbuterol was the minimum dose needed to give maximum improvements in gain and feed conversion. Therefore, the results of any compound tested should cause responses similar to clenbuterol if the compound has half or more the activity of clenbuterol.

**Q.** For `CC(C)(C)NCC(O)c1ccc(O)c(CO)n1` (centres unmarked) [VII, Pirbuterol], which Gain (control 7.3) is on record?
**A.** 8.0 g/day

**Q.** What about the “Feed Intake” value (control 18.6) of the same compound?
**A.** 19.8 g/day

**Q.** And the Weight (control 191.8)?
**A.** 200.9 g

**Q.** And the “Carcass Composition % of Change over Control, Fat” value?
**A.** -8.7%

**Q.** And the “Carcass Composition % of Change over Control, Protein” value?
**A.** 3.6%
